Results published in ChEMBL document CHEMBL1153043, “Synthesis and evaluation of 1-(benzo[b]thiophen-2-yl)ethanone analogues as novel anti-osteoporosis agents acting on BMP-2 promotor” (Bioorg Med Chem Lett, 2009).

Key:
[1] = Enhancement of BMP-2 expression in mouse MC3T3-E1 cells assessed as upregulation rate at 4 uM; assay type: functional, cell-based
Rattus norvegicus [2] = experiment: Antiosteoporotic activity in ovariectomized Sprague-Dawley rat assessed as trabecular bone volume at 7.5 mg/kg/day, po for 90 days by bone histomorphometry; assay type: functional, Trabecula
Rattus norvegicus [3] = experiment: Antiosteoporotic activity in ovariectomized Sprague-Dawley rat assessed as trabecular bone volume at 15 mg/kg/day, po for 90 days by bone histomorphometry; assay type: functional, Trabecula
Rattus norvegicus [4] = experiment: Antiosteoporotic activity in ovariectomized Sprague-Dawley rat assessed as trabecular bone volume at 30 mg/kg/day, po for 90 days by bone histomorphometry; assay type: functional, Trabecula
Rattus norvegicus [5] = experiment: Antiosteoporotic activity in ovariectomized Sprague-Dawley rat assessed as trabecula resorption surface at 7.5 mg/kg/day, po for 90 days by bone histomorphometry; assay type: functional
Rattus norvegicus [6] = experiment: Antiosteoporotic activity in ovariectomized Sprague-Dawley rat assessed as trabecula resorption surface at 15 mg/kg/day, po for 90 days by bone histomorphometry; assay type: functional
Rattus norvegicus [7] = experiment: Antiosteoporotic activity in ovariectomized Sprague-Dawley rat assessed as trabecula resorption surface at 30 mg/kg/day, po for 90 days by bone histomorphometry; assay type: functional
Rattus norvegicus [8] = experiment: Antiosteoporotic activity in ovariectomized Sprague-Dawley rat assessed as trabecula formation surface at 7.5 mg/kg/day, po for 90 days by bone histomorphometry; assay type: functional
Rattus norvegicus [9] = experiment: Antiosteoporotic activity in ovariectomized Sprague-Dawley rat assessed as trabecula formation surface at 15 mg/kg/day, po for 90 days by bone histomorphometry; assay type: functional
Rattus norvegicus [10] = experiment: Antiosteoporotic activity in ovariectomized Sprague-Dawley rat assessed as trabecula formation surface at 30 mg/kg/day, po for 90 days by bone histomorphometry; assay type: functional
Rattus norvegicus [11] = experiment: Antiosteoporotic activity in ovariectomized Sprague-Dawley rat assessed as mineral apposition rate at 7.5 mg/kg/day, po for 90 days by bone histomorphometry; assay type: functional
Rattus norvegicus [12] = experiment: Antiosteoporotic activity in ovariectomized Sprague-Dawley rat assessed as mineral apposition rate at 15 mg/kg/day, po for 90 days by bone histomorphometry; assay type: functional
Rattus norvegicus [13] = experiment: Antiosteoporotic activity in ovariectomized Sprague-Dawley rat assessed as mineral apposition rate at 30 mg/kg/day, po for 90 days by bone histomorphometry; assay type: functional
Rattus norvegicus [14] = experiment: Antiosteoporotic activity in ovariectomized Sprague-Dawley rat assessed as osteo cortex mineralization rate at 7.5 mg/kg/day, po for 90 days by bone histomorphometry; assay type: functional
Rattus norvegicus [15] = experiment: Antiosteoporotic activity in ovariectomized Sprague-Dawley rat assessed as osteo cortex mineralization rate at 15 mg/kg/day, po for 90 days by bone histomorphometry; assay type: functional
Rattus norvegicus [16] = experiment: Antiosteoporotic activity in ovariectomized Sprague-Dawley rat assessed as osteo cortex mineralization rate at 30 mg/kg/day, po for 90 days by bone histomorphometry; assay type: functional
Rattus norvegicus [17] = experiment: Antiosteoporotic activity in ovariectomized Sprague-Dawley rat assessed as average osteoid width at 7.5 mg/kg/day, po for 90 days by bone histomorphometry; assay type: functional
Rattus norvegicus [18] = experiment: Antiosteoporotic activity in ovariectomized Sprague-Dawley rat assessed as average osteoid width at 15 mg/kg/day, po for 90 days by bone histomorphometry; assay type: functional
Rattus norvegicus [19] = experiment: Antiosteoporotic activity in ovariectomized Sprague-Dawley rat assessed as average osteoid width at 30 mg/kg/day, po for 90 days by bone histomorphometry; assay type: functional
[20] = Toxicity in po dosed Kunming mouse; assay type: organism-based; settings: in vivo
[21] = Toxicity in ip dosed Kunming mouse; assay type: organism-based; settings: in vivo
Rattus norvegicus [22] = experiment: Toxicity in sham operated Sprague-Dawley rat assessed as effect on general behavior at 150 mg/kg/day, po for 90 days; assay type: organism-based; set-up: route oral; settings: in vivo, 2160 h
Rattus norvegicus [23] = experiment: Toxicity in sham operated Sprague-Dawley rat assessed as effect on glutamine-oxaloacetic transaminase level at 150 mg/kg/day, po for 90 days; assay type: organism-based; set-up: route oral; settings: in vivo, 2160 h
Rattus norvegicus [24] = experiment: Toxicity in sham operated Sprague-Dawley rat assessed as effect on glutamic-pyruvic transaminase level at 150 mg/kg/day, po for 90 days; assay type: organism-based; set-up: route oral; settings: in vivo, 2160 h
Rattus norvegicus [25] = experiment: Toxicity in sham operated Sprague-Dawley rat assessed as effect on total bilirubin level at 150 mg/kg/day, po for 90 days; assay type: organism-based; set-up: route oral; settings: in vivo, 2160 h
Rattus norvegicus [26] = experiment: Toxicity in sham operated Sprague-Dawley rat assessed as effect on alkaline phosphatase level at 150 mg/kg/day, po for 90 days; assay type: organism-based; set-up: route oral; settings: in vivo, 2160 h
Rattus norvegicus [27] = experiment: Toxicity in sham operated Sprague-Dawley rat assessed as effect on total protein level at 150 mg/kg/day, po for 90 days; assay type: organism-based; set-up: route oral; settings: in vivo, 2160 h
Rattus norvegicus [28] = experiment: Toxicity in sham operated Sprague-Dawley rat assessed as effect on albumin level at 150 mg/kg/day, po for 90 days; assay type: organism-based; set-up: route oral; settings: in vivo, 2160 h
Rattus norvegicus [29] = experiment: Toxicity in sham operated Sprague-Dawley rat assessed as effect on triglycerides level at 150 mg/kg/day, po for 90 days; assay type: organism-based; set-up: route oral; settings: in vivo, 2160 h
Rattus norvegicus [30] = experiment: Toxicity in sham operated Sprague-Dawley rat assessed as effect on total cholesterol level at 150 mg/kg/day, po for 90 days; assay type: organism-based; set-up: route oral; settings: in vivo, 2160 h
Rattus norvegicus [31] = experiment: Toxicity in sham operated Sprague-Dawley rat assessed as effect on direct-high density lipoprotein level at 150 mg/kg/day, po for 90 days; assay type: organism-based; set-up: route oral; settings: in vivo, 2160 h
Rattus norvegicus [32] = experiment: Toxicity in sham operated Sprague-Dawley rat assessed as effect on direct-low density lipoprotein level at 150 mg/kg/day, po for 90 days; assay type: organism-based; set-up: route oral; settings: in vivo, 2160 h
Rattus norvegicus [33] = experiment: Toxicity in sham operated Sprague-Dawley rat assessed as effect on glucose level at 150 mg/kg/day, po for 90 days; assay type: organism-based; set-up: route oral; settings: in vivo, 2160 h
Rattus norvegicus [34] = experiment: Toxicity in sham operated Sprague-Dawley rat assessed as effect on blood urea nitrogen level at 150 mg/kg/day, po for 90 days; assay type: organism-based; set-up: route oral; settings: in vivo, 2160 h
Rattus norvegicus [35] = experiment: Toxicity in sham operated Sprague-Dawley rat assessed as effect on creatinine level at 150 mg/kg/day, po for 90 days; assay type: organism-based; set-up: route oral; settings: in vivo, 2160 h
Rattus norvegicus [36] = experiment: Toxicity in sham operated Sprague-Dawley rat assessed as effect on calcium level at 150 mg/kg/day, po for 90 days; assay type: organism-based; set-up: route oral; settings: in vivo, 2160 h
Rattus norvegicus [37] = experiment: Toxicity in sham operated Sprague-Dawley rat assessed as effect on bone histomorphometric parameters at 150 mg/kg/day, po for 90 days; assay type: organism-based; set-up: route oral; settings: in vivo, 2160 h
Rattus norvegicus [38] = experiment: Antiosteoporotic activity in po dosed ovariectomized Sprague-Dawley rat assessed as trabecular bone volume administered for 90 days by bone histomorphometry; assay type: functional, organism-based; settings: Trabecula
Rattus norvegicus [39] = experiment: Antiosteoporotic activity in po dosed ovariectomized Sprague-Dawley rat assessed as trabecula formation surface administered for 90 days by bone histomorphometry; assay type: functional, organism-based
Rattus norvegicus [40] = experiment: Antiosteoporotic activity in po dosed ovariectomized Sprague-Dawley rat assessed as trabecula resorption surface administered for 90 days by bone histomorphometry; assay type: functional, organism-based
Rattus norvegicus [41] = experiment: Antiosteoporotic activity in po dosed ovariectomized Sprague-Dawley rat assessed as mineral apposition rate administered for 90 days by bone histomorphometry; assay type: functional, organism-based
Rattus norvegicus [42] = experiment: Antiosteoporotic activity in po dosed ovariectomized Sprague-Dawley rat assessed as osteo cortex mineralization rate administered for 90 days by bone histomorphometry; assay type: functional, organism-based
Rattus norvegicus [43] = experiment: Antiosteoporotic activity in po dosed ovariectomized Sprague-Dawley rat assessed as average osteoid width administered for 90 days by bone histomorphometry; assay type: functional, organism-based

NC(=O)c1cc2ccccc2s1
Activity [1]: 11.2%

CC(=O)c1sc2ccccc2c1C
Activity [1]: 28%

COc1cc2cc(C(C)=O)sc2cc1OC
Activity [1]: 37.1%

CC(=O)c1cc2ccccc2s1
Activity (Rattus norvegicus [2]): 14.41%
Activity (Rattus norvegicus [3]): 19.39%
Activity (Rattus norvegicus [4]): 21.02%
Activity (Rattus norvegicus [5]): 7.81%
Activity (Rattus norvegicus [6]): 5.16%
Activity (Rattus norvegicus [7]): 4.74%
Activity (Rattus norvegicus [8]): 7.4%
Activity (Rattus norvegicus [9]): 6.64%
Activity (Rattus norvegicus [10]): 6.39%
Activity (Rattus norvegicus [11]): 2.32 µm/day
Activity (Rattus norvegicus [12]): 2.19 µm/day
Activity (Rattus norvegicus [13]): 2.18 µm/day
Activity (Rattus norvegicus [14]): 3.42 µm/day
Activity (Rattus norvegicus [15]): 3.14 µm/day
Activity (Rattus norvegicus [16]): 3.22 µm/day
Activity (Rattus norvegicus [17]): 11.4 µm
Activity (Rattus norvegicus [18]): 10.9 µm
Activity (Rattus norvegicus [19]): 10.8 µm
LD50 [20]: 5000 mg/kg
LD50 [21]: 1580 mg/kg
Activity (Rattus norvegicus [22]): Non-toxic
Activity (Rattus norvegicus [23]): Non-toxic
Activity (Rattus norvegicus [24]): Non-toxic
Activity (Rattus norvegicus [25]): Non-toxic
Activity (Rattus norvegicus [26]): Non-toxic
Activity (Rattus norvegicus [27]): Non-toxic
Activity (Rattus norvegicus [28]): Non-toxic
Activity (Rattus norvegicus [29]): Non-toxic
Activity (Rattus norvegicus [30]): Non-toxic
Activity (Rattus norvegicus [31]): Non-toxic
Activity (Rattus norvegicus [32]): Non-toxic
Activity (Rattus norvegicus [33]): Non-toxic
Activity (Rattus norvegicus [34]): Non-toxic
Activity (Rattus norvegicus [35]): Non-toxic
Activity (Rattus norvegicus [36]): Non-toxic
Activity (Rattus norvegicus [37]): Non-toxic
Activity (Rattus norvegicus [38]): Dose-dependent effect
Activity (Rattus norvegicus [39]): Dose-dependent effect
Activity (Rattus norvegicus [40]): Dose-dependent effect
Activity (Rattus norvegicus [41]): Dose-dependent effect
Activity (Rattus norvegicus [42]): Dose-dependent effect
Activity (Rattus norvegicus [43]): Dose-dependent effect
Activity [1]: 35.6%

CC(=O)c1sc2ccc(C(F)(F)F)cc2c1C
Activity [1]: 16.7%

CC(=O)c1sc2cccc(Cl)c2c1C
Activity [1]: 16.5%

CC(=O)c1csc2ccccc12
Activity [1]: 11.9%

O=C(O)c1cc2ccccc2s1
Activity [1]: 10.8%

CC(=O)c1c[nH]c2ccccc12
Activity [1]: 22.8%

COC(=O)c1cc2ccccc2s1
Activity [1]: 27.3%
